Results published in the supplement of paper PMC10307832.

Key:
Assay in all cases: relative viability (nuclei count vs DMSO), 5 days (fraction); higher = more cells survive
[1] = compound: CC1=C(C(=O)N2C=CSC2=N1)CCN3CCC(=C(C4=CC=CC=C4)C5=CC=C(C=C5)F)CC3 + CC(=O)c1c(C)c2cnc(Nc3ccc(N4CCNCC4)cn3)nc2n(C2CCCC2)c1=O [Palbociclib] (partner 0.5 µM)
Summary of the method: (§1)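 Cells from lung cancer lines were seeded into 1536-well plates and, one day later, dosed by pin tool. Treatments were either a single drug or a fixed dose of an anchor drug with five library-drug doses (not always all listed) in √10 steps. After 5 days, nuclei were stained in a one-step fixation (final 0.05% Triton X-100, 1% formaldehyde, 1 ug/ml Hoechst) and counted on 4× images, and relative viability is the treated-to-vehicle nuclei ratio, as the median of duplicate plates.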

[2] = compound: CC1=C(C(=O)N2C=CSC2=N1)CCN3CCC(=C(C4=CC=CC=C4)C5=CC=C(C=C5)F)CC3 + Nc1nc2[nH]cc(CCc3ccc(C(=O)N[C@@H](CCC(=O)O)C(=O)O)cc3)c2c(=O)[nH]1 [Pemetrexed] (partner 0.2 µM)
Summary of the method: as §1

[3] = compound: CC1=C(C(=O)N2C=CSC2=N1)CCN3CCC(=C(C4=CC=CC=C4)C5=CC=C(C=C5)F)CC3 + Cc1nc(NC(=O)N2CCC[C@H]2C(N)=O)sc1-c1ccnc(C(C)(C)C(F)(F)F)c1 [Alpelisib] (partner 2 µM)
Summary of the method: as §1

[4] = compound: CC1=C(C(=O)N2C=CSC2=N1)CCN3CCC(=C(C4=CC=CC=C4)C5=CC=C(C=C5)F)CC3 + O=C(c1cc(Cc2n[nH]c(=O)c3ccccc23)ccc1F)N1CCN(C(=O)C2CC2)CC1 [Olaparib] (partner 8 µM)
Summary of the method: as §1

Row | Cell Line | relative viability ([1]; first compound 0.08 µM) | relative viability ([1]; first compound 0.253 µM) | relative viability ([1]; first compound 0.8 µM) | relative viability ([1]; first compound 2.53 µM) | relative viability ([1]; first compound 8 µM) | relative viability ([2]; first compound 0.08 µM) | relative viability ([2]; first compound 0.253 µM) | relative viability ([2]; first compound 0.8 µM) | relative viability ([2]; first compound 2.53 µM) | relative viability ([2]; first compound 8 µM) | relative viability ([3]; first compound 0.08 µM) | relative viability ([3]; first compound 0.253 µM) | relative viability ([3]; first compound 0.8 µM) | relative viability ([3]; first compound 2.53 µM) | relative viability ([3]; first compound 8 µM) | relative viability ([4]; first compound 0.08 µM) | relative viability ([4]; first compound 0.253 µM) | relative viability ([4]; first compound 0.8 µM) | relative viability ([4]; first compound 2.53 µM) | relative viability ([4]; first compound 8 µM)
1 | NCI-H2126 | 0.367 | 0.343 | 0.359 | 0.367 | 0.344 | 0.587 | 0.758 | 0.713 | 0.721 | 0.511 | 0.764 | 0.766 | 0.742 | 0.816 | 0.785 | 1.07 | 0.855 | 0.975 | 0.968 | 0.695
2 | NCI-H2170 | 0.396 | 0.405 | 0.36 | 0.37 | 0.344 | 0.278 | 0.269 | 0.28 | 0.271 | 0.248 | 0.753 | 0.771 | 0.844 | 0.836 | 0.76 | 0.674 | 0.538 | 0.635 | 0.717 | 0.394
3 | NCI-H2228 | 0.56 | 0.68 | 0.723 | 0.468 | 0.432 | 0.406 | 0.37 | 0.375 | 0.362 | 0.278 | 0.75 | 0.829 | 0.734 | 0.595 | 0.786 | 0.591 | 0.701 | 0.723 | 0.728 | 0.347
4 | NCI-H2347 | 0.358 | 0.428 | 0.434 | 0.442 | 0.461 | 0.398 | 0.482 | 0.441 | 0.454 | 0.409 | 0.942 | 0.855 | 1.18 | 1.02 | 0.791 | 0.58 | 0.571 | 0.616 | 0.549 | 0.598
5 | NCI-H2405 | 0.609 | – | 0.547 | 0.576 | 0.476 | 1.11 | – | 1.07 | 1.08 | 0.758 | 0.74 | 0.798 | 0.914 | 0.792 | 0.731 | 0.941 | – | 0.889 | 0.989 | 0.79
6 | NCI-H3122 | 0.178 | 0.213 | 0.192 | 0.164 | 0.157 | 0.192 | 0.188 | 0.201 | 0.214 | 0.163 | 0.794 | 0.701 | 0.781 | 0.915 | 0.752 | 0.458 | 0.627 | 0.595 | 0.628 | 0.371
7 | PC-3 [JPC-3] | 0.58 | – | 0.576 | 0.596 | 0.579 | 1.16 | – | 0.995 | 1.01 | 1.02 | 0.959 | 1.1 | 1.07 | 1.08 | 0.899 | 1.04 | – | 1.21 | 1.31 | 1.05
